Experimental data as given in BindingDB's records for doi:10.1002/cbic.201402089 (University of Santiago De Compostela, 2014).
Values joined by “and” are separate entries in the source; they are usually repeats but may differ in a detail not shown here. Equal values may be shown once.

Biological target: T1, Kinesin-like protein KIF11 [1-973] (Homo sapiens, UniProt P52732)
T1 construct: 1-973
T1 sequence (P52732 whole entry): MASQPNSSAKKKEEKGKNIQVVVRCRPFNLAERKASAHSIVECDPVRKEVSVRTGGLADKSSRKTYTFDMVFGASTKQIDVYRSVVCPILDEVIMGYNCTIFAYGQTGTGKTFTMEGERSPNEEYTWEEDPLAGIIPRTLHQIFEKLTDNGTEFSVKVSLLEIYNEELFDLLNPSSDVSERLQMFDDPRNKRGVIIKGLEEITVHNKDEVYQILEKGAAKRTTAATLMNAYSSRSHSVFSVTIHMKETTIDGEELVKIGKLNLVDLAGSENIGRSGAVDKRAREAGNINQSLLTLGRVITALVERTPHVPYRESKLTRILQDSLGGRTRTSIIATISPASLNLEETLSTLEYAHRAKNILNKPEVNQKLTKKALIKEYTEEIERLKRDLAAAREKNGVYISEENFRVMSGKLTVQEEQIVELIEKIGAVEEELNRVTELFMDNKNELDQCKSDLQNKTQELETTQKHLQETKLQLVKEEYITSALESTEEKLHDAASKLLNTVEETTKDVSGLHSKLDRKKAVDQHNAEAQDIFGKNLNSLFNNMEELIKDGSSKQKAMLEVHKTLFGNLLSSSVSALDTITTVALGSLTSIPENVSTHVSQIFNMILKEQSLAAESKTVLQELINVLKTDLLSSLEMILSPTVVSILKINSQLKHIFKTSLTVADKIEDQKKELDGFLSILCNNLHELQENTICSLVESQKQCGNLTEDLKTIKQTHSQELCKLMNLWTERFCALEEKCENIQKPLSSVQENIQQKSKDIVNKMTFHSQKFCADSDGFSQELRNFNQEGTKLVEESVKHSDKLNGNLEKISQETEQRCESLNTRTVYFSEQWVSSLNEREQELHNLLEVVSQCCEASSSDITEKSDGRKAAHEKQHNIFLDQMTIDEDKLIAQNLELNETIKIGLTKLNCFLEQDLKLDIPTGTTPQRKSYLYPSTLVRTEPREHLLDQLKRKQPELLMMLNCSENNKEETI
Assay: Microtubule-activated ATPase Kinetic Assay

Row | SMILES | IC50
1 | CCOC(=O)CNC(=O)C(C1CC1)n1c(C(=O)c2ccccc2)nc2cc(Br)c(Br)cc21 (stereo not drawn) [(−)-Ethyl 2-[2-(2-benzoyl-5,6-dibromo-1H-benzo[d]imidazol-1-yl)-2 cyclopropylacetamido] acetate (Compound 21)] | 1490 nM and 2520 nM
2 | CCCC(C(=O)NCC(=O)OCC)n1c(C(=O)c2ccccc2)nc2cc(Br)c(Br)cc21 (stereo not drawn) [(−)-Ethyl 2-[2-(2-benzoyl-5,6-dibromo-1H-benzo[d]imidazol-1-yl)pentanamido]acetate (Compound 23)] | 1370 nM and 1720 nM
3 | CCOC(=O)CNC(=O)C(C1CC1)n1c(Cc2ccccc2)nc2cc(Br)c(Br)cc21 (stereo not given) [Ethyl 2-[2-(2-benzyl-5,6-dibromo-1H-benzo[d]imidazol-1-yl)-2-cyclopropylacetamido] acetate (Compound 12)] | 2290 nM
4 | CCCC(C(=O)NCC(=O)OCC)n1c(Cc2ccccc2)nc2cc(Cl)c(Cl)cc21 (stereo not given) [Ethyl 2-[2-(2-benzyl-5,6-dichloro-1H-benzo[d]imidazol-1-yl)pentanamido] acetate (Compound 9)] | 1600 nM
5 | CCOC(=O)C1C(C)=NC(=S)NC1c1cccc(O)c1 (stereo not given) [ethyl 4-(3-hydroxyphenyl)-6-methyl-2-sulfanylidene-3,4-dihydro-1H-pyrimidine-5-carboxylate] | 6900 nM
